In patent publication US5162361A, “Method of treating diseases associated with elevated levels of interleukin 1” (priority 1990, dated 1992):
“Also recorded” adds a separate entry of the source.

Tested on: human IL-1
Experiment: IL-1 secretion by human alveolar macrophages (enzyme linked immunosorbant assay)
Assay type: cell-based
Conditions: 10^-5 M
Protocol: Dose response studies were performed to determine the molar concentration at which pentamidine reduced viability in normal rat macrophages. […] This blockage was shown using an enzyme linked immunosorbant assay with specific antibody to IL-1β.
Four normal healthy human volunteers were lavaged and their pulmonary macrophages cultured in vitro in the presence of 10^-5 M pentamidine and the IL-1 inducer, lipopolysaccharide. Following 24 hours of incubation, the supernatant fluid was collected and stored at -20° C. for IL-1 determination using an enzyme linked immunosorbant assay with specific antibody to human IL-1.

## N=C(N)c1ccc(OCCCCCOc2ccc(C(=N)N)cc2)cc1 [Pentamidine, 1,5-bis(4-amidinophenoxy)pentane]
ELISA with specific antibody to IL-1β, result in words
  IL-1 (IL-1β) secretion by human macrophages: blocks IL-1 secretion; also recorded: decreased IL-1β release by human macrophages
Macrophage, 24 h, cumulative over four human subjects, vs. untreated macrophages of same individual, read-out: Suppression in the amount of IL-1 secreted
  inhibition at 10 µM: 62.1%
